In PubChem BioAssay AID1259407 (Chemical Carcinogenesis Research Information System (CCRIS), 2018):
The source made the active and inactive calls. How the calls were made is not given here.

Test system: CCRIS mutagenicity, Ames/micronucleus/aberration tests
Assay: CCRIS mutagenicity studies
[1] = Test System: AMES SALMONELLA TYPHIMURIUM, Strain/Indicator: TA98, Metabolic Activation: NONE, Method: PREINCUBATION
[2] = Test System: AMES SALMONELLA TYPHIMURIUM, Strain/Indicator: TA98, Metabolic Activation: NONE, Method: STANDARD PLATE
[3] = Test System: AMES SALMONELLA TYPHIMURIUM, Strain/Indicator: TA100, Metabolic Activation: NONE, Method: STANDARD PLATE
[4] = Test System: AMES SALMONELLA TYPHIMURIUM, Strain/Indicator: TA1535, Metabolic Activation: NONE, Method: STANDARD PLATE
[5] = Test System: AMES SALMONELLA TYPHIMURIUM, Strain/Indicator: TA1537, Metabolic Activation: NONE, Method: STANDARD PLATE
[6] = Test System: AMES SALMONELLA TYPHIMURIUM, Strain/Indicator: TA1538, Metabolic Activation: NONE, Method: STANDARD PLATE
[7] = Test System: AMES SALMONELLA TYPHIMURIUM, Strain/Indicator: TA98, Metabolic Activation: RAT, LIVER, S-9, AROCLOR 1254, Method: STANDARD PLATE
[8] = Test System: AMES SALMONELLA TYPHIMURIUM, Strain/Indicator: TA100, Metabolic Activation: RAT, LIVER, S-9, AROCLOR 1254, Method: STANDARD PLATE

Measured: mutagenic call

O=C1OC2(c3ccccc31)c1cc(I)c(O)c(I)c1Oc1c2cc(I)c(O)c1I
inactive: Test System: AMES SALMONELLA TYPHIMURIUM, Strain/Indicator: TA97A, Metabolic Activation: NONE, Method: PREINCUBATION inactive; negative | Test System: AMES SALMONELLA TYPHIMURIUM, Strain/Indicator: TA97A, Metabolic Activation: RAT CECAL CELL-FREE EXTRACTS, Method: PREINCUBATION inactive; negative | Test System: AMES SALMONELLA TYPHIMURIUM, Strain/Indicator: TA97A, Metabolic Activation: RAT, LIVER, S9, AROCLOR 1254, Method: PREINCUBATION inactive; negative | [1] inactive; negative | [2] inactive; negative | Test System: AMES SALMONELLA TYPHIMURIUM, Strain/Indicator: TA98, Metabolic Activation: RAT CECAL CELL-FREE EXTRACTS, Method: PREINCUBATION inactive; negative | Test System: AMES SALMONELLA TYPHIMURIUM, Strain/Indicator: TA98, Metabolic Activation: RAT, LIVER, S9, AROCLOR 1254, Method: PREINCUBATION inactive; negative | Test System: AMES SALMONELLA TYPHIMURIUM, Strain/Indicator: TA98, Metabolic Activation: RAT, LIVER, S9, AROCLOR 1254, Method: STANDARD PLATE inactive; negative | Test System: AMES SALMONELLA TYPHIMURIUM, Strain/Indicator: TA98, Metabolic Activation: S9, Method: PREINCUBATION inactive; negative | Test System: AMES SALMONELLA TYPHIMURIUM, Strain/Indicator: TA100, Metabolic Activation: NONE, Method: PREINCUBATION inactive; negative | [3] inactive; negative | Test System: AMES SALMONELLA TYPHIMURIUM, Strain/Indicator: TA100, Metabolic Activation: RAT CECAL CELL-FREE EXTRACTS, Method: PREINCUBATION inactive; negative | Test System: AMES SALMONELLA TYPHIMURIUM, Strain/Indicator: TA100, Metabolic Activation: RAT, LIVER, S9, AROCLOR 1254, Method: PREINCUBATION inactive; negative | Test System: AMES SALMONELLA TYPHIMURIUM, Strain/Indicator: TA100, Metabolic Activation: RAT, LIVER, S9, AROCLOR 1254, Method: STANDARD PLATE inactive; negative | Test System: AMES SALMONELLA TYPHIMURIUM, Strain/Indicator: TA100, Metabolic Activation: S9, Method: PREINCUBATION inactive; negative | Test System: AMES SALMONELLA TYPHIMURIUM, Strain/Indicator: TA102, Metabolic Activation: NONE, Method: PREINCUBATION inactive; negative | Test System: AMES SALMONELLA TYPHIMURIUM, Strain/Indicator: TA102, Metabolic Activation: RAT CECAL CELL-FREE EXTRACTS, Method: PREINCUBATION inactive; negative | Test System: AMES SALMONELLA TYPHIMURIUM, Strain/Indicator: TA102, Metabolic Activation: RAT, LIVER, S9, AROCLOR 1254, Method: PREINCUBATION inactive; negative | Test System: AMES SALMONELLA TYPHIMURIUM, Strain/Indicator: TA104, Metabolic Activation: NONE, Method: PREINCUBATION inactive; negative | Test System: AMES SALMONELLA TYPHIMURIUM, Strain/Indicator: TA104, Metabolic Activation: RAT CECAL CELL-FREE EXTRACTS, Method: PREINCUBATION inactive; negative | Test System: AMES SALMONELLA TYPHIMURIUM, Strain/Indicator: TA104, Metabolic Activation: RAT, LIVER, S9, AROCLOR 1254, Method: PREINCUBATION inactive; negative | [4] inactive; negative | Test System: AMES SALMONELLA TYPHIMURIUM, Strain/Indicator: TA1535, Metabolic Activation: RAT, LIVER, S9, AROCLOR 1254, Method: STANDARD PLATE inactive; negative | [5] inactive; negative | Test System: AMES SALMONELLA TYPHIMURIUM, Strain/Indicator: TA1537, Metabolic Activation: RAT, LIVER, S9, AROCLOR 1254, Method: STANDARD PLATE inactive; negative | [6] inactive; negative | Test System: AMES SALMONELLA TYPHIMURIUM, Strain/Indicator: TA1538, Metabolic Activation: RAT, LIVER, S9, AROCLOR 1254, Method: STANDARD PLATE inactive; negative | Test System: MOUSE LYMPHOMA, Strain/Indicator: L5178Y (TK+/TK-), Metabolic Activation: RAT, LIVER, S9, AROCLOR 1254, Method: SUSPENSION/PLATE inactive; negative

CC(C)N(CC(O)COc1cccc2ccccc12)N=O (configuration not stated)
active: Test System: UDS HUMAN HEPATOCYTES, Strain/Indicator: THY INCORP, Metabolic Activation: NONE, Method: AUTORADIOGRAPHY active; positive | Test System: UDS RAT HEPATOCYTES, Strain/Indicator: THY INCORP, Metabolic Activation: NONE, Method: AUTORADIOGRAPHY active; positive

COc1ccccc1/C=C/C=C(/C#N)c1ccc(Br)cc1
active: Test System: AMES SALMONELLA TYPHIMURIUM, Strain/Indicator: TA97A, Metabolic Activation: NONE, Method: STANDARD PLATE active; positive

CN=NNc1ccc(C(=O)O)cc1
active: Test System: AMES SALMONELLA TYPHIMURIUM, Strain/Indicator: TA92, Metabolic Activation: NONE, Method: STANDARD PLATE active; positive | Test System: E. COLI B, Strain/Indicator: TM9, Metabolic Activation: NONE, Method: STANDARD PLATE active; positive

Cc1ccc(-c2nc3n(c2[N+](=O)[O-])CCS3)cc1
inactive: [2] inactive; negative | [4] inactive; negative | [5] inactive; negative | [6] inactive; negative
active: [3] active; positive

c1ccc2c(c1)-c1c(c3ccccc3c3ccccc13)C1NC21 (configuration not stated)
active: Test System: AMES SALMONELLA TYPHIMURIUM, Strain/Indicator: TA98, Metabolic Activation: NONE, Method: PREINCUBATION (KCL-CONTAINING MEDIUM) active; positive | Test System: AMES SALMONELLA TYPHIMURIUM, Strain/Indicator: TA98, Metabolic Activation: NONE, Method: PREINCUBATION (KCL-FREE MEDIUM) active; positive | Test System: AMES SALMONELLA TYPHIMURIUM, Strain/Indicator: TA100, Metabolic Activation: NONE, Method: PREINCUBATION (KCL-CONTAINING OR KCL-FREE MEDIA) active; positive

NC(=O)CCC(=O)Nc1cc(Cl)c(Cl)c(Cl)c1
inactive: [2] inactive; negative | [7] inactive; negative | [3] inactive; negative | [8] inactive; negative

Nc1cccc2nc3c(N)cccc3nc12
inactive: Test System: AMES SALMONELLA TYPHIMURIUM, Strain/Indicator: TA98, Metabolic Activation: RAT, LIVER, S-9, PCB, Method: PREINCUBATION inactive; negative
active: [1] active; positive

c1cnc2c(c1)CCC1OC21 (configuration not stated)
inactive: [3] inactive; negative | Test System: AMES SALMONELLA TYPHIMURIUM, Strain/Indicator: TA100, Metabolic Activation: RAT, LIVER, S-9, AROCLOR 1254 (10 OR 20%), Method: STANDARD PLATE inactive; negative

Cc1ccc(NO)cc1[N+](=O)[O-]
inactive: Test System: AMES SALMONELLA TYPHIMURIUM, Strain/Indicator: TA98, Metabolic Activation: NONE, Method: SUSPENSION/PLATE inactive; negative | Test System: AMES SALMONELLA TYPHIMURIUM, Strain/Indicator: TA98, Metabolic Activation: RAT, LIVER, S-9, PHENOBARBITAL AND 5,6-BENZOFLAVONE, Method: SUSPENSION/PLATE inactive; negative | Test System: AMES SALMONELLA TYPHIMURIUM, Strain/Indicator: TA100, Metabolic Activation: NONE, Method: SUSPENSION/PLATE inactive; negative | Test System: AMES SALMONELLA TYPHIMURIUM, Strain/Indicator: TA100, Metabolic Activation: RAT, LIVER, S-9, PHENOBARBITAL AND 5,6-BENZOFLAVONE, Method: SUSPENSION/PLATE inactive; negative

C[N+]1(CCNP(=S)(NCC[N+]2(C)Cc3c(ccc4c3OCO4)[C@@H]3[C@H]2c2cc4c(cc2C[C@@H]3O)OCO4)NCC[N+]2(C)Cc3c(ccc4c3OCO4)[C@@H]3[C@H]2c2cc4c(cc2C[C@@H]3O)OCO4)Cc2c(ccc3c2OCO3)[C@@H]2[C@H]1c1cc3c(cc1C[C@@H]2O)OCO3 (some centres not stated)
inactive: [3] inactive; negative | [8] inactive; negative

C1=c2ccccc2=C2Cc3ccccc3C3=C4OC4=C1C32 (configuration not stated)
active: [2] active; positive | [7] active; positive

O=CN(O)c1ccc(Br)cc1
active: [7] active; positive | [8] active; positive
inactive: [2] inactive; negative | [3] inactive; negative

C=C(OC)[C@H](CSCC(Br)c1ccccc1)NC(=O)CC (some centres not stated)
inactive: Test System: AMES SALMONELLA TYPHIMURIUM, Strain/Indicator: TA100, Metabolic Activation: NONE, Method: SPOT TEST inactive; negative
